{"source": "paper PMC11599936", "about": "“New-to-nature CO2-dependent acetyl-CoA assimilation enabled by an engineered B12-dependent acyl-CoA mutase” (Nature Communications, 2024)", "assay_type_in_all_cases": "biochemical", "key": {"[1]": {"target": "T1, 2-hydroxyisobutyryl-CoA mutase from Aquincola tertiaricarbonis (Aquincola tertiaricarbonis, UniProt I3VE74+I3VE77)", "T1 construct": "gene hcmA", "T1 sequence (I3VE77 1-562)": "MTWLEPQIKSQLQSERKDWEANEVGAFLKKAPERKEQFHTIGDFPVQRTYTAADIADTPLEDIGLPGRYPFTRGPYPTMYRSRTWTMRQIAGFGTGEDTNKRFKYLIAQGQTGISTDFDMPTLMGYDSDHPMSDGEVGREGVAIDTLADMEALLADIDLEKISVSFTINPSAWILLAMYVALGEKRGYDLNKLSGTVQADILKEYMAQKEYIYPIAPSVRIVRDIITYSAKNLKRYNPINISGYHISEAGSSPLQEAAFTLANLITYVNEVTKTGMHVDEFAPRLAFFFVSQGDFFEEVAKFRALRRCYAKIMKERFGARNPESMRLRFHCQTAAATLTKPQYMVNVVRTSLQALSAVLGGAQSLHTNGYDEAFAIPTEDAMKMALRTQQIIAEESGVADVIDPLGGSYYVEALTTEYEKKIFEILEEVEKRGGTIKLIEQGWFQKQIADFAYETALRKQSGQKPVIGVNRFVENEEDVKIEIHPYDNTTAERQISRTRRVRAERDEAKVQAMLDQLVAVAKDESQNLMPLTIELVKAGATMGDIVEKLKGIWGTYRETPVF", "T1 sequence (I3VE74 1-136)": "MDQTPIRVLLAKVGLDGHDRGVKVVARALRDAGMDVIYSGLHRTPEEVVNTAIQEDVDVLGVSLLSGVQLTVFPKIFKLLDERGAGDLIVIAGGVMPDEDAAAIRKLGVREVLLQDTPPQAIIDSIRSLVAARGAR", "test": "coupled PhaJ/Etr1p assay, NADPH at […] nm", "conditions": "12.5 µM coenzyme B12, 50 mM NaPO4 pH 7, 30 °C"}, "AbfT": {"target": "T2, AbfT (Clostridium aminobutyricum, UniProt Q9RM86)", "T2 construct": "recombinant from E. coli BL21 (DE3), Ni-NTA purified", "T2 sequence (Q9RM86 1-438)": "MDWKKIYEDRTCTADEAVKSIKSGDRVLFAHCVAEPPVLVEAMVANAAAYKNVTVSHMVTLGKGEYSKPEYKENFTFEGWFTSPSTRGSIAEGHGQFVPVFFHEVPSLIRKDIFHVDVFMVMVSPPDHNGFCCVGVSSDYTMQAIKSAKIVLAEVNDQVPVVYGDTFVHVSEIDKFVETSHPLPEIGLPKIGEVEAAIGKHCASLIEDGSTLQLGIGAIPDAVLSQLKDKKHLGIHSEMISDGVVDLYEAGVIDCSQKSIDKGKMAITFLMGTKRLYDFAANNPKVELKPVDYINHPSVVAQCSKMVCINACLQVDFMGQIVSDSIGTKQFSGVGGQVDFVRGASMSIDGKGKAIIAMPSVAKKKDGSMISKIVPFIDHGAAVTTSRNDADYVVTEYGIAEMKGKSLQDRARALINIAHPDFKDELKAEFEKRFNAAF", "test": "LC-MS CoA-transfer assay", "conditions": "100 mM HEPES pH 7.5, 10 mM MgCl2, 30 °C"}, "Pct": {"target": "T3, Pct (Cupriavidus necator, UniProt Q0K874)", "T3 construct": "recombinant from E. coli BL21 (DE3), Ni-NTA purified", "T3 sequence (Q0K874 1-542)": "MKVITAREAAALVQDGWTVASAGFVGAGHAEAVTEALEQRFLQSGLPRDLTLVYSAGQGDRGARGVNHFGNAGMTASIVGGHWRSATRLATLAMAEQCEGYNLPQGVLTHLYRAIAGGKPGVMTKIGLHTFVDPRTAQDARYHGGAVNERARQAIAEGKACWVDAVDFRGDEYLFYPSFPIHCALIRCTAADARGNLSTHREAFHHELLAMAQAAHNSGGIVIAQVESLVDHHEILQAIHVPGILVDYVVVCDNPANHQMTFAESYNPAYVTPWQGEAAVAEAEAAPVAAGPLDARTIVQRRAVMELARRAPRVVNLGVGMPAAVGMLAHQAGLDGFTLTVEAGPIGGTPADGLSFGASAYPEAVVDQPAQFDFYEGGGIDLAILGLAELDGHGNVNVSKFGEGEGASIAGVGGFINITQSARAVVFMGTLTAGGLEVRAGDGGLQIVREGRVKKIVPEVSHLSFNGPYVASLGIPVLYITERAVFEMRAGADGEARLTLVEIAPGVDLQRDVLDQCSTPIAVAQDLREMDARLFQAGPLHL", "test": "LC-MS CoA-transfer assay", "conditions": "100 mM HEPES pH 7.5, 10 mM MgCl2, 30 °C"}, "[2]": {"conditions": "CoA donor acetyl-CoA 100 µM, 1 mM acid"}}, "data": [{"smiles": "CC(C)(O)C(=O)SCCNC(=O)CCNC(=O)[C@H](O)C(C)(C)COP(=O)(O)OP(=O)(O)OC[C@H]1O[C@@H](n2cnc3c(N)ncnc32)[C@H](O)[C@@H]1OP(=O)(O)O", "note": "[2-hydroxyisobutyryl-CoA]", "values": [{"measurement": "coupled PhaJ/Etr1p assay, NADPH at 340 nm", "setting": "[1]", "value": "we confirmed functionality of this purified enzyme with its native substrate 2-hydroxyisobutyryl-CoA"}]}, {"smiles": "CC(=O)SCCNC(=O)CCNC(=O)[C@H](O)C(C)(C)COP(=O)(O)OP(=O)(O)OC[C@H]1O[C@@H](n2cnc3c(N)ncnc32)[C@H](O)[C@@H]1OP(=O)(O)O", "note": "[acetyl-CoA]", "values": [{"measurement": "LC-MS CoA-transfer assay", "setting": "AbfT; CoA acceptor 3-HP 1 mM", "value": "performed best with 3-HP as CoA-acceptor and acetyl-CoA as CoA-donor"}, {"measurement": "LC-MS CoA-transfer assay", "setting": "Pct; CoA acceptor 3-HP 1 mM", "value": "performed best with 3-HP as CoA-acceptor and acetyl-CoA as CoA-donor"}]}, {"smiles": "O=C(O)CCO", "note": "[3-hydroxypropionate]", "values": [{"measurement": "LC-MS CoA-transfer assay", "setting": "AbfT; [2]", "value": "performed best with 3-HP as CoA-acceptor and acetyl-CoA as CoA-donor"}, {"measurement": "LC-MS CoA-transfer assay", "setting": "Pct; [2]", "value": "performed best with 3-HP as CoA-acceptor and acetyl-CoA as CoA-donor"}]}]}
